Experimental data taken from US6337322B1, “Preventives and remedies for intestinal mucosal disorder” (Meiji Milk Products Co., Ltd., priority 1998, dated 2002).
Counter-ions that a name gives are not always drawn.

Columns and labels:
[1] = Test Example 1: body weight of fasting rats; format: in vivo, rat; conditions: 48 hours; for Weight ± standard deviation, Final: fasting rats, free ingestion
Description: Six-week-old male Sprague-Dawley rats (purchased from Nippon Charles River) were employed in the test. Water and solid feed (CRF-1, product of Oriental Yeast) were freely ingested by the rats. […] The test was carried out for 48 hours. For the fasting groups, solid feed was removed in the morning of the day on which the test was initiated. During the 48 hours, solid feed, water, and an ethanolamine hydrochloride-containing aqueous solution were freely ingested by the rats in the solid feed ingestion group, the water ingestion fasting group, and the ethanolamine hydrochloride ingestion fasting group, respectively. The amount of water ingested during the 48 hours was measured, and the amount of ingested ethanolamine per rat was calculated on the basis of the amount of water (Table 2). For each group, the rats were weighed at the time of test initiation and the time of test completion, in order to obtain the average weight (Table 1). In the fasting groups, any changes in the weight of the rats that could be attributed to ethanolamine ingestion were not observed.

[2] = tested on: duodenal epithelial mucosa tissue; assay: Test Example 1: atrophy of duodenal epithelial mucosa caused by 48-hour fasting, PAS-stained tissue sections; format: in vivo, rat; conditions: for Density of secretion granules / Intercellular space / Size of cell / Size of nucleus: fasting rats, 48 hours
Description: Six-week-old male Sprague-Dawley rats (purchased from Nippon Charles River) were employed in the test. Water and solid feed (CRF-1, product of Oriental Yeast) were freely ingested by the rats. […] The test was carried out for 48 hours. For the fasting groups, solid feed was removed in the morning of the day on which the test was initiated. During the 48 hours, solid feed, water, and an ethanolamine hydrochloride-containing aqueous solution were freely ingested by the rats in the solid feed ingestion group, the water ingestion fasting group, and the ethanolamine hydrochloride ingestion fasting group, respectively. The amount of water ingested during the 48 hours was measured, and the amount of ingested ethanolamine per rat was calculated on the basis of the amount of water (Table 2). […] The small intestine was excised from each rat, and a duodenal portion (size: 1 cm in length) was removed from a position 5 cm in the direction of the anus away from the pylorus. The removed portion was fixed in phosphate buffered formalin. After 24-hour fixation, the duodenal portion was embedded in paraffin using a conventional technique, to thereby prepare a tissue section. The thus-prepared tissue sample was subjected to PAS staining, and then observed.

[3] = tested on: villous epithelium of the duodenum; assay: Test Example 2: duodenal disorder induced by four-day fasting and intraperitoneal 5% dextrose, HE-stained tissue sections; format: in vivo, rat; conditions: 250 mg/5 mL/kg orally twice a day, first to third fasting day, versus control group
Description: Nine-week-old CD (SD) IGS male rats were employed in the test. The rats were kept in individual fasting cages, and the day after initiation of fasting was regarded as the first fasting day. Fasting (i.e., provision of no food and no water) was carried out for four days, and on the fourth day the rats were sacrificed through […]. A 5% dextrose solution was intraperitoneally administered to each rat in an amount of 10 mL on the basis of body weight (100 g) from the first fasting day to the third fasting day, to thereby induce disorders. The rats were divided into two groups: a control group and a drug administration group. To the rats of the control group, sterile water was orally administered in an amount of 0.5 mL per 100 g of body weight twice a day, at 10:00 AM and 4:00 PM. To the rats of the drug administration group, ethanolamine hydrochloride was administered in an amount of 250 mg/5 mL/kg twice a day, at 10:00 AM and 4:00 PM. The administration was carried out from the first fasting day to the third fasting day. On the fourth fasting day, the rats were sacrificed through cervical dislocation, and the stomach and the duodenum were removed from each rat. The inside of the intestinal tract was washed with saline. Subsequently, the pylorus was ligated and the tract was also ligated at a position 4 cm from the pylorus. […]

keratinocyte = conditions: cited from earlier work
[4] = tested on: primarily cultured liver cells; conditions: cited from earlier work
[5] = 1 μM Etn in water (6 μg/kg/day)
[6] = 10 μM Etn in water (34 μg/kg/day)
[7] = 100 μM Etn in water (330 μg/kg/day)
[8] = 1000 μM Etn in water (4500 μg/kg/day)

NCCO [ethanolamine hydrochloride]
Weight ± standard deviation, Final ([1]; 1 μM Etn in water): 208.2 ± 3.1 g
Weight ± standard deviation, Final ([1]; 10 μM Etn in water): 209.4 ± 7.4 g
Weight ± standard deviation, Final ([1]; 100 μM Etn in water): 210.4 ± 3.9 g
Weight ± standard deviation, Final ([1]; 1000 μM Etn in water): 213.1 ± 6.7 g
position of nuclei in cells ([2]; 100 μM ingestion fasting group): situated centrally
enlarged intercellular spaces and cell atrophy ([2]; 100 μM ingestion fasting group, compared with solid feed ingestion group): not observed
cell nuclei size ([2]; 100 μM ingestion fasting group, compared with water and 1 or 10 μM fasting groups): considerably enlarged
PAS staining of mucus-secreting granules in goblet cells ([2]; 100 μM ingestion fasting group, compared with water ingestion fasting group): heavily stained
cell nuclei size ([2]; 1 or 10 μM ingestion fasting groups): reduced in size
Density of secretion granules [2, 5]: Low
Intercellular space [2, 5]: Large
Size of cell [2, 5]: Small
Size of nucleus [2, 5]: Small
Density of secretion granules [2, 6]: Low
Intercellular space [2, 6]: Large
Size of cell [2, 6]: Small
Size of nucleus [2, 6]: Small
Density of secretion granules [2, 7]: High
Intercellular space [2, 7]: None
Size of cell [2, 7]: Large
Size of nucleus [2, 7]: Large
Density of secretion granules [2, 8]: High
Intercellular space [2, 8]: None
Size of cell [2, 8]: Large
Size of nucleus [2, 8]: Large
prevention and treatment of atrophy of the small intestine caused by fasting ([2]; overall conclusion of Test Example 1): effective

NCCO [ethanolamine]
changes in the weight of the rats that could be attributed to ethanolamine ingestion ([1]; fasting groups): not observed
cellular infiltration [3]: only slight
necrosis of the villous epithelium [3]: remarkably suppressed
proliferation of epithelial cells (keratinocyte): promote proliferation
proliferation of liver cells ([4]; in the presence of a cell growth factor such as EGF, ethanolamine 10-100 μM): synergistically promoted
proliferation-promoting activity ([4]; only ethanolamine added, no cell growth factor): not observed
